This passage reports IC50 results from patent publication US9216968B2, “Heterocyclic derivative and pharmaceutical drug” (NIPPON SHINYAKU CO., LTD., priority 2011, dated 2015).

One experiment has as its target human mPGES-1 (Homo sapiens (Human), UniProt O14684). In words: mPGES-1 inhibiting activity (microsome fractions, PGE2 by HTRF). The settings on record: microsomes from CHO-K1 cells transfected with human mPGES-1; PGH2 1 μM, 4° C., 60 seconds; read-out: mPGES-1 Inhibition IC50. Type of experiment: biochemical. In short, it runs like this: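 PGE2 formation read by HTRF after 60 s at 4 °C with 1 μM PGH2 substrate, following 20 min compound preincubation (1% DMSO) with human mPGES-1 microsomes from transfected CHO-K1 cells. Buffer: potassium phosphate, reduced glutathione, pH 7.4; IC50 from activity relative to enzyme-free blank.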

The next experiment deals with A549 cells. Kind of experiment: Inhibition of PGE2 production in A549 cell (IL-1β stimulated). In kind it is cell-based, human. The settings on record: Homo sapiens, A549, 24 h, IL-1β 5 ng/well, PGE2 in culture medium. In short, it runs like this: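 A549 cells preincubated 60 min with compound in RPMI/3% FBS (final DMSO 0.10), then stimulated with IL-1β (5 ng/well) for 24 h at 37 °C. PGE2 measured by HTRF and PGF2α by EIA in medium; IC50 from inhibition relative to stimulated minus unstimulated production.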

Where a name gives a salt, the structure may show the parent alone.

Sequence of human mPGES-1 (O14684 whole entry): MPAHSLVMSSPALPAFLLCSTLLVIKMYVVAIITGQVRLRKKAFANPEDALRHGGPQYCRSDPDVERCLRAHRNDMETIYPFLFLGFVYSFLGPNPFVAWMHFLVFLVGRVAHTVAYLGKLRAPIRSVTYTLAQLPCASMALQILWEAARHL

As to `COCc1nc2c(C(=O)Nc3ccc(C)c(C)c3)cc(NC(=O)c3ccccc3C(F)(F)F)cc2[nH]1` [Example 31, N-(3,4-Dimethylphenyl)-2-(methoxymethyl)-6-({[2-(trifluoromethyl)phenyl]carbonyl}amino)-1H-benzimidazole-4-carboxamide hydrochloride], the results for the half-maximal inhibitory concentration (IC50) at human mPGES-1 and with A549 cells were 4.1 nM and 69 nM, respectively.
The like results for `CNC(=O)Cc1nc2c(C(=O)Nc3cccc(Cl)c3C)cc(NC(=O)c3ccccc3C(F)(F)F)cc2[nH]1` [Example 134, N-(3-Chloro-2-methylphenyl)-2-[2-(methylamino)-2-oxoethyl]-6-({[2-(trifluoromethyl)phenyl]carbonyl}amino)-1H-benzimidazole-4-carboxamide hydrochloride] were, in that order, 10.3 nM and 921 nM.
In the same order, the values of `COCc1nc2c(C(=O)NCc3cccc(Cl)c3C)cc(NC(=O)c3ccccc3C(F)(F)F)cc2[nH]1` [Example 39, N-(3-Chloro-2-methylbenzyl)-2-(methoxymethyl)-6-({[2-(trifluoromethyl)phenyl]carbonyl}amino)-1H-benzimidazole-4-carboxamide hydrochloride] are 10.4 nM and 237 nM.
The like results for `Cc1c(Cl)cccc1NC(=O)c1cc(NC(=O)c2ccccc2C(F)(F)F)cc2[nH]c(N3CC(O)C3)nc12` [Example 148, N-(3-Chloro-2-methylphenyl)-2-(3-hydroxyazetidin-1-yl)-6-({[2-(trifluoromethyl)phenyl]carbonyl}amino)-1H-benzimidazole-4-carboxamide hydrochloride] were, in that order, 1.9 nM and 324 nM.
`Cc1c(Cl)cccc1NC(=O)c1cc(NC(=O)c2ccccc2C(F)(F)F)cc2[nH]c(CC(=O)N3CCCC3)nc12` [Example 132, N-(3-Chloro-2-methylphenyl)-2-[2-oxo-2-(pyrrolidin-1-yl)ethyl]-6-({[2-(trifluoromethyl)phenyl]carbonyl}amino)-1H-benzimidazole-4-carboxamide hydrochloride]: the results for the IC50 on human mPGES-1 and in the experiment on A549 cells were 2.2 nM and 590 nM, respectively.
In the same order, the values of `Cc1nc2c(C(=O)NC3CCCCC3)cc(NC(=O)c3ccccc3C(F)(F)F)cc2[nH]1` [Example 13, N-Cyclohexyl-2-methyl-6-({[2-(trifluoromethyl)phenyl]carbonyl}amino)-1H-benzimidazole-4-carboxamide hydrochloride] are 35.1 nM and 75.6 nM.
In the same order, the values of `Cc1c(Cl)cccc1NC(=O)c1cc(NC(=O)c2ccccc2C(F)(F)F)cc2[nH]c([S+](C)[O-])nc12` (centres unmarked) [Example 181, N-(3-Chloro-2-methylphenyl)-2-(methylsulfinyl)-6-({[2-(trifluoromethyl)phenyl]carbonyl}amino)-1H-benzimidazole-4-carboxamide] are 1.1 nM and 705 nM.
The like results for `COCc1nc2c(C(=O)Nc3cccc(Cl)c3C)cc(NC(=O)c3c(F)cccc3Cl)cc2[nH]1` [Example 92, 6-{[(2-Chloro-6-fluorophenyl)carbonyl]amino}-N-(3-chloro-2-methylphenyl)-2-(methoxymethyl)-1H-benzimidazole-4-carboxamide hydrochloride] were, in that order, 6.7 nM and 32.2 nM.
Turning to `COCc1nc2c(C(=O)Nc3cccc(Cl)c3C)cc(NC(=O)c3ccc(C)cc3Cl)cc2[nH]1` [Example 105, N-(3-Chloro-2-methylphenyl)-6-{[(2-chloro-4-methylphenyl)carbonyl]amino}-2-(methoxymethyl)-1H-benzimidazole-4-carboxamide hydrochloride], the half-maximal inhibitory concentration (IC50) (usually the concentration that gives 50% inhibition) at human mPGES-1 was 8.9 nM; in the experiment on A549 cells it was 325 nM.
The like results for `Cc1c(Cl)cccc1NC(=O)c1cc(NC(=O)c2ccccc2C(F)(F)F)cc2[nH]c(N[C@@H](CO)C(C)C)nc12` [Example 171, N-(3-Chloro-2-methylphenyl)-2-{[(2R)-1-hydroxy-3-methylbutan-2-yl]amino}-6-({[2-(trifluoromethyl)phenyl]carbonyl}amino-1H-benzimidazole-4-carboxamide hydrochloride] were, in that order, 4.7 nM and 97.8 nM.
